Experimental data taken from patent US20080275134A1, “Methods for Treatment of Retinal Degenerative Disease” (University of Washington, priority 2005, published 2008).
Each block holds one compound with its values, some of them ahead of it.

How the values were obtained:
[1] = test system: regeneration of vision chromophore (11-cis-retinal); assay: regeneration of 11-cis-retinal in mouse eyes after gavage and light bleach, HPLC retinoid analysis; format: in vivo; conditions: 50 mg/kg, tested in parallel with Ret-NH2
Experimental: Mice were gavaged with all-trains-Ret-NH2, exposed to intense light for 20 min, and then allowed to recover in the dark for 5 hours. The total amount of different forms of retinoids in all experiments was unchanged. […] For this experiment mice were treated with both 9-cis-retinol and all-trans-Ret-NH2, and bleached after 24 hours, and were allowed to recover for 5 hours in the dark. The presence of 9-cis-retinal was confirmed in treated animals (see peaks 4 and 4′ in FIG. 4A bottom panel, corresponding to syn- and anti-9-cis-retinal oximes, respectively). 11-cis-Retinal was not reduced and/or esterified after treatment with Ret-NH2. […] This supports the idea that Ret-NH2 is a specific inhibitor of the isomerization reaction.
A. Chromatographic separation of nonpolar retinoids from WT mouse eyes. Mice were gavaged with all-trans-Ret-NH2 24 hours prior to bleaching for 20 min at 150 cd·m^−2 W in the Ganzfeld chamber. Regeneration of 11-cis-retinal was allowed for 24 hours in the dark, and retinoids were extracted from the eye and separated by normal phase HPLC as described in Materials and Methods. The peaks were identified based on elution time and absorption spectra correspond to the following retinoids: 1, all-trans-retinyl esters; 2,2′, syn- and anti-11-cis-retinal oximes; 3, syn-all-trans-retinal oxime; 4,4′, syn- and anti-9-cis-retinal oximes; 5, all-trans-retinol. B. Changes of 11-cis-retinal oxime levels at increasing doses of all-trans-Ret-NH2 during 5 hours or 24 hours of dark adaptation. Square indicates the level of 11-cis-retinal oximes that was present in mice gavaged with vegetable oil without retinoids just after bleaching, and arrow indicates the increase of visual chromophore during 5 hours of dark adaptation. Triangles correspond to the level of 11-cis-retinal found in the mice gavaged with 50 mg/kg of 13-cis-RA. C and D. Single flash ERG responses of increasing intensity for all-trans-Ret-NH2 treated mice and control mice. Serial responses to increasing flash stimuli were obtained for all-trans-Ret-NH2 treated and control mice for selected intensities (C) and plotted as a function of a-wave and b-wave versus varying light intensities under dark-adapted conditions (D) before bleach and at 5 hours and 24 hours after bleach. The dark-adapted mice were bleached with intense constant illumination (150 cd·m^−2) for 20 min. […] SE bars are shown.
Chromatographic separation of nonpolar retinoids from WT mouse eyes. Mice were gavaged with 100 mg/kg of all-trans-Ret-NH2 24 hours prior to bleaching. Mice were next exposed to 500 cd m^−2 for 48 min bleaching in the Ganzfeld chamber. Regeneration of 11-cis-retinal was allowed for 24 hours in the dark, and retinoids were extracted from the eye and separated by normal phase HPLC as described in Materials and Methods. The peaks identified based on elution time and absorption spectra correspond to the following retinoids: 1, all-trans-retinyl esters; 2,2′, syn- and anti-1-cis-retinal oximes; 3,3′ syn- and anti-all-trans-retinal oximes; 4, all-trans-retinol.
Mice were gavaged with the solution of inhibitor in vegetable oil (control—non-treated, RPN—retinylpalmitamide, RAN—retinylacetamide, Ret—NH2-all-trans-retinylamine), kept in dark for 16 hours, then light stimulated and kept in dark for additional 5 hours before their eyes were analyzed.
Mouse retinoid extraction and analysis—Retinoid analysis was performed under dim red light as described previously (Maeda et al., J. Neurochem 85:944-956, 2003; Van Hooser et al., J Biol Chem 277:19173-82, 2002). Mice were gavaged with retinoids as described previously (Van Hooser et al., J Biol Chem 277:19173-82, 2002).

A2E formation = conditions: in vivo; cited from earlier work
11-cis-RDH = conditions: cited from earlier work
RAR = assay: F9-RARE-lacZ reporter cell line, β-galactosidase activity (DR5 elements); format: cell-based; conditions: 24 hours treatment, micromolar concentrations
Text: 13-cis-RA can isomerize to all-trans-RA and then to 9-cis-RA, both of which are potent ligands of the RA receptor (RAR). 9-cis-RA also binds and activates the retinoid X receptor (RXR). This contributes to the toxicity of the RAR and RXR ligands. It was investigated whether Ret-NH2 can activate these nuclear receptor using reporter-cells as described previously (20). A β-galactosidase activity assay was employed to examine if all-trans-RA, 9-cis-RA, and Ret-NH2 are agonists for these nuclear receptors.
F9-RARE-lacZ cells express endogenous RAR and RXR and were transfected with a construct of lacZ under the control of a minimal promoter and upstream DR5 elements (1). F9-RARE-lacZ cells were treated with different doses of all-trans-RA or Ret-NH2 for 24 hours after which the cells were harvested and the β-galactosidase activity was measured using the soluble substrate o-nitrophenyl β-D-galactopyranoside. The colorless substrate was cleaved by β-galactosidase to yellow colored o-nitrophenol, whose absorbance was measured at 420 nm using a spectrophotometer. The experiment was repeated twice with similar results. The RARE reporter cell line F9-RARE-lacZ (SIL15-RA) was a kind gift from Dr. Michael Wagner (SUNY Downstate Medical Center) and Dr. Peter McCaffery (University of Massachusetts Medical School). […]

CYP26A1 = biological target: T1, CYP26A1 (Homo sapiens, UniProt O43174); assay: oxidation in HEK-293 cells transfected with CYP26A1 cDNA; format: in vitro ADME
T1 construct: expressed in transfected cells; host or cells: HEK-293
T1 sequence (O43174 1-497): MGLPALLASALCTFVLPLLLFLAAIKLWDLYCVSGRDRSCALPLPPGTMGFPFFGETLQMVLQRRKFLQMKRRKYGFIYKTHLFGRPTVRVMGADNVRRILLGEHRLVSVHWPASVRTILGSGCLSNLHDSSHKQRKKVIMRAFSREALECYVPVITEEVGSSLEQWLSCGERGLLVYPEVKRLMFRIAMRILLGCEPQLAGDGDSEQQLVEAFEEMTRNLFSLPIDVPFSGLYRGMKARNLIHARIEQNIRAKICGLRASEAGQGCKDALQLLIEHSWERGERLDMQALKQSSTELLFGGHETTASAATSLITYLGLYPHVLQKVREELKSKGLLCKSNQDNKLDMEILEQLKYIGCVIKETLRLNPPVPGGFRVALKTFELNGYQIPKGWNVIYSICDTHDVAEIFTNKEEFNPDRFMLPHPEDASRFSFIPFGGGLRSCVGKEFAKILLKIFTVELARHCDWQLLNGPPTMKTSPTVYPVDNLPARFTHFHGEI
Text: Next, the RA oxidation pathway was investigated. […] In addition to secretion, Ret-NH2 might be degraded first by deamination to all-trans-retinol/retinal, which was seen to increase in Ret-NH2 treated cells. […] These observations explain the long-lasting effect of RetNH2, as the amide is stored and hydrolyzed back to the free amine.

Compound: CC1=C(/C=C/C(C)=C/C=C/C(C)=C\C(=O)O)C(C)(C)CCC1 [13-cis-RA, 13-cis-retinoic acid]
effect on chromophore recovery at 50 mg/kg [1]: ineffective
formation of A2E (A2E formation): blocked the formation of A2E
inhibition of 11-cis-RDH (11-cis-RDH): inhibits 11-cis-RDH

Compound: CC1=C(/C=C/C(C)=C/C=C/C(C)=C/C(=O)O)C(C)(C)CCC1 [all-trans-RA, All-trans-retinoic acid, reference compound]
activation of transcription through RAR (DR5 RARE) (RAR): activated transcription

oxidation by CYP26A1 (CYP26A1): readily oxidized
Compound: CC1=C(/C=C/C(C)=C/C=C/C(C)=C/C(=O)O)C(C)(C)CCC1 [retinoic acid, reference compound]
